Data as given in ChEMBL document CHEMBL1134150, “Synthesis and antiproliferative activity of some thiazolylbenzimidazole-4,7-diones” (Bioorg Med Chem Lett, 2001).

Columns and labels:
[1] = system: K562; assay: Antiproliferative activity tested as 50% inhibition of DNA synthesis in human K562 erythroleukemia cell line; format: functional, cell-based
[2] = system: SW-620; assay: Antiproliferative activity tested as 50% inhibition of DNA synthesis in human SW620 colon carcinoma cell line; format: functional, cell-based

For `O=C(O)c1csc(-c2nc3c([nH]2)C(=O)C=CC3=O)n1`, the IC50 [1] was 18 µM and the IC50 [2] was 8.76 µM.
In the case of `COc1cccc2c1C(=O)c1c(O)c3c(c(O)c1C2=O)C[C@@](O)(C(=O)CO)C[C@@H]3O[C@H]1C[C@H](N)[C@H](O)[C@H](C)O1` [DOXORUBICIN], the IC50 [1] is reported as 0.62 µM and the IC50 [2] is reported as 0.75 µM.
Work on `NC(=O)c1csc(-c2nc3c([nH]2)C(=O)C=CC3=O)n1` yielded an IC50 [1] of 7.7 µM and an IC50 [2] of 3.03 µM.
In the case of `CCOC(=O)c1csc(-c2nc3c([nH]2)C(=O)C=CC3=O)n1`, the IC50 [1] is reported as 16.3 µM and the IC50 [2] is reported as 1.42 µM.
With `COC1=CC(=O)c2[nH]c(-c3nc(C(N)=O)cs3)nc2C1=O` the IC50 [1] was 1.32 µM and the IC50 [2] was 15.9 µM.
`COC1=CC(=O)c2[nH]c(-c3nc(C(=O)O)cs3)nc2C1=O` showed an IC50 [1] of 15.1 µM and an IC50 [2] of 12.1 µM.
`CCOC(=O)c1csc(-c2nc3c([nH]2)C(=O)C=C(OC)C3=O)n1` showed an IC50 [1] of 1.16 µM and an IC50 [2] of 13.1 µM.
